Source: patent publication US4386198A, “2-Hydroxyaclacinomycin A and 2-hydroxyaklavinone and process for preparing same” (priority 1979, dated 1983)
Converted amounts (≈) assume the structure as drawn.

Experiments:
[1] = system: L 1210 cells; test: growth and nucleic acid biosynthesis of murine leukemia L 1210 cells in culture; format: cell-based
Experimental: (§1) In an example, L 1210 cells were inoculated in RPMI (Rosewell Park Memorial Institute) 1640 medium containing 20% calf serum at the cell density of 5×10^4 cells/ml, and the compound in the present invention was simultaneously added to the medium at the concentration of 0.1 and 0.5 μg/ml and incubated at 37° C. in a CO2 incubator. 50% growth inhibition concentration of the compound over controls was determined. L 1210 cells as described above were also inoculated at 5×10^5 cells in RPMI 1640 medium containing 10% calf serum and incubated at 37° C. for 1 to 2 hours in a CO2 incubator. The cells were cultured for 15 min. at 37° C. after the compound of the present invention was added at various concentrations, and then ^14 C-uridine (0.05 μCi/ml) or ^14 C-thymidine (0.05 μCi/ml) was added and incubated for 60 additional min. at 37° C. After stopping the pulse-labeling by addition of 10% trichloroacetic acid (TCA) solution to the reaction mixture, acid-insoluble materials were precipitated, washed three times with 5 to 10% TCA, and dissolved in a small amount of formic acid. Then, radioactivity was determined, and inhibitory effects on the RNA and DNA biosynthesis were indicated by the 50% inhibition concentration (IC50) of the incorporation of radioactivity over controls.

[2] = system: L 1210 leukemia; test: in vivo antitumor activity: L 1210 (prolongation of lifespan of CDF1 mice inoculated intraperitoneally with L 1210 cells); design: species or system mice (murine; CDF1); details: for T/C: once daily for 10 days, from 24 h after inoculation
Experimental: Antitumor effect against experimental animal tumor was examined as follows. CDF1 mice were inoculated with 1×10^5 cells of L 1210 cells intraperitoneally, and 2-hydroxyaclacinomycin A was administered intraperitoneally once daily for 10 days consecutively, 24 hours after inoculation. Prolongation of lifespan over controls (injected with only physiological saline instead of 2-hydroxyaclacinomycin A) is shown in Table 1. LD50 value in dd mice is also shown in Table 1 comparing with that of aclacinomycin A.

[3] = cardiotoxicity compared with aclacinomycin A; details: comparing with aclacinomycin A
[4] = system: dd mice; test: Acute toxicity (LD50) in dd mice; format: in vivo; details: compared with daunomycin and adriamycin
[5] = Acute toxicity (LD50) in dd mice; format: in vivo; details: mouse, in vivo, ip; dd mice
[6] = system: RNA biosynthesis in L 1210 cells; test: in vitro activity: RNA synthesis in L 1210 cells (14C-uridine incorporation); format: cell-based, murine; details: for IC50: Mus musculus, L1210, L 1210, 14C-uridine, 60 min pulse after 15 min with compound, 37° C.
Experimental: as §1

[7] = system: L 1210 cells; test: in vitro activity: L 1210 growth inhibition; format: cell-based, murine; details: for IC50: Mus musculus, L1210, L 1210, RPMI 1640 with 20% calf serum, 37° C.
Experimental: as §1

[8] = system: DNA biosynthesis in L 1210 cells; test: in vitro activity: DNA synthesis in L 1210 cells (14C-thymidine incorporation); format: cell-based, murine; details: Mus musculus, L1210; L 1210, 14C-thymidine, 60 min pulse after 15 min with compound, 37° C.
Experimental: as §1

Row | SMILES | inhibition of growth and nucleic acid biosynthesis, in words [1] | T/C ([2]; 0.5 mg/kg/day i.p.) | T/C ([2]; 1 mg/kg/day i.p.) | T/C ([2]; 2 mg/kg/day i.p.) | T/C ([2]; 4 mg/kg/day i.p.) | T/C ([2]; 6 mg/kg/day i.p.) | T/C ([2]; 8 mg/kg/day i.p.) | T/C ([2]; 12 mg/kg/day i.p.) | prolongation of lifespan, in words ([2]; L 1210-bearing mice) | antitumor activity, in words ([2]; comparing with aclacinomycin A) | effective dose range relative to aclacinomycin A ([2]; relative to aclacinomycin A) | cardiotoxicity, in words [3] | acute toxicity, in words [4] | LD50 [5] | IC50 [6] | inhibition of RNA synthesis, in words ([6]; mode of action compared to aclacinomycin and rhodomycin-group) | IC50 [7] | suppression of growth, in words ([7]; murine leukemic cells, low concentration) | IC50 [8] | toxicity in words at 8 mg/kg/day (in T/C column) ([2]; 8 mg/kg/day i.p., L 1210-bearing CDF1 mice)
1 | CCC1(O)CC(OC2CC(N(C)C)C(OC3CC(O)C(OC4CCC(=O)C(C)O4)C(C)O3)C(C)O2)c2c(cc3c(c2O)C(=O)c2c(O)cc(O)cc2C3=O)C1C(=O)OC (centres unmarked) [2-Hydroxyaclacinomycin A, 2-hydroxyaclacinomycin A] | inhibited markedly the growth and nucleic acid biosynthesis | 145% | 153% | 176% | 201% | 218% | 194% | 127% | marked prolongation of lifespan | more potent antitumor activity | twice | less cardiotoxicity | much more less than those of known anthracycline antibiotics such as daunomycin and adriamycin | 50 mg/kg | 0.1 µg/mL (≈ 0.121 µM) | specifically inhibited RNA synthesis | 0.1 µg/mL (≈ 0.121 µM) | suppressed the growth of murine leukemic cells at low concentration | 0.95 µg/mL (≈ 1.15 µM) | 
2 | CC[C@@]1(O)C[C@H](O[C@H]2C[C@H](N(C)C)[C@H](O[C@H]3C[C@H](O)[C@H](O[C@H]4CCC(=O)[C@H](C)O4)[C@H](C)O3)[C@H](C)O2)c2c(cc3c(c2O)C(=O)c2c(O)cccc2C3=O)[C@H]1C(=O)OC [Aclacinomycin A] |  | 130% | 146% | 165% | 205% | 105% |  |  |  |  |  |  |  | 22.6 mg/kg | 0.1 µg/mL (≈ 0.123 µM) |  | 0.12 µg/mL (≈ 0.148 µM) |  | 1.1 µg/mL (≈ 1.35 µM) | Toxic
